Values of other authors in PMC5292677 (Leukemia, 2016).
Where two headings read alike, the source gives them in different places.

Tested on: patients with MF
Settings: cited from earlier work

Question: With `C1=C/COCc2cc(ccc2OCCN2CCCC2)Nc2nccc(n2)-c2cccc(c2)COC/1` [pacritinib] as the molecule, how does the Myelosuppression read?
Answer: Its Myelosuppression is “lack of myelosuppression”.

Question: Which “Change in allele burden” value does the source give for `Cc1cnc(Nc2ccc(OCCN3CCCC3)cc2)nc1Nc1cccc(S(=O)(=O)NC(C)(C)C)c1` [fedratinib] here?
Answer: The value was “no meaningful change in allele burden”.

Question: And the “CRP and IL-6 levels” value (patients treated, no reference given)?
Answer: The value was “CRP downregulation was reported without significant IL-6 reduction”.

Question: For `N#CC[C@H](C1CCCC1)n1cc(-c2ncnc3[nH]ccc23)cn1` [ruxolitinib], which TNFα level (following 4 weeks' treatment) is on record?
Answer: Its TNFα level is “downregulated”.

Question: What about the “Change in allele burden” value (long-term treatment) of the same molecule?
Answer: The value was “only a modest reduction”.

Question: For `N#CCNC(=O)c1ccc(-c2ccnc(Nc3ccc(N4CCOCC4)cc3)n2)cc1` [momelotinib], which “Change in allele burden” value is on record?
Answer: Its value is “no meaningful change in allele burden”.
